Test [1] has as its system L-687,414-induced hyperlocomotion. In words: L-687,414-induced hyperlocomotion. To be noted: Mus musculus; mice; dose 30 mg/kg ip, 15 min before 50 mg/kg s.c. L-687,414. Type of test: in vivo. The text has this: The authors described that hyperlocomotion induced by L-687,414 was inhibited by a series of known antipsychotic drugs. […] These findings predict antipsychotic activity for the present compounds, making them useful for the treatment of positive (psychosis) and negative symptoms of schizophrenia, substance abuse, alcohol and drug addiction, obsessive-compulsive disorders, cognitive impairment, bipolar disorders, mood disorders, major depression, resistant depression, anxiety disorders, Alzheimer's disease, autism, Parkinson's disease, chronic pain, borderline personality disorder, sleep disturbances, chronic fatigue syndrome, stiffness, antiinflammatory effects in arthritis and balance problems, and treatment of epilepsy and neurodevelopmental disorders with co-morbid epilepsy.
The described compounds of formula I reduce L-687,414-induced hyperlocomotion. This was assessed by using a computerized Digiscan 16 Animal Activity Monitoring System (Omnitech Electronics, Columbus, Ohio) to quantify locomotor activity. Animals were kept under a 12 h light/dark cycle and experiments were performed during the light period. Each activity monitoring chamber consisted of a Plexiglas box (41×41×28 cm; W×L×H) with sawdust bedding on the floor surrounded by invisible horizontal and vertical infrared sensor beams. The test boxes were divided by a Plexiglas cross providing each mouse with 20×20 cm of moving space. Cages were connected to a Digiscan Analyzer linked to a computer that constantly collected the beam status information. Records of photocell beam interruptions for individual animals were taken every 5 min over the duration of the experimental session and the sum of the first 6 periods was used as the final parameter. At least 8 mice were used in each treatment group. Compounds were administered i.p. 15 min before a s.c. injection of 50 mg/kg of L-687,414. Mice were then transferred from their home cage to the recording chambers for a 15-min habituation phase allowing free exploration of the new environment. Horizontal activity was then recorded for a 30-min time period. The % inhibition of L-687,414-induced hyperlocomotion was calculated according to the equation: ((Veh+L-687,414 horizontal activity−drug+L-687,414 horizontal activity)/Veh+L−687,414 horizontal activity)×100
ID50 values, defined as doses of each compound producing 50% inhibition of L-687,414-induced hyperlocomotion, were calculated by linear regression analysis of a dose-response data using an Excel-based computer-fitting program.
As data was not presupposed to be normally distributed, groups treated with test compounds were statistically compared with the control (vehicle-treated) group using one-tailed Mann Whitney U tests. In statistics, the Mann-Whitney Utest (also called the Mann-Whitney-Wilcoxon (MWW) or Wilcoxon rank-sum test) is a non-parametric statistical hypothesis test for assessing whether one of two samples of independent observations tends to have larger values than the other. It is one of the most well-known non-parametric significance tests. […] P values given in table 1 are one-tailed since only decreases in locomotion were expected and tested for (Mann, H. B., Whitney, D. R. (1947), “On a Test of Whether one of Two Random Variables is Stochastically Larger than the Other”, Annals of Mathematical Statistics, 18 (1), 50-60).

Test [2] addresses T1, mouse ENT-1 transporter (Mus musculus, UniProt Q9JIM1).
T1 construct: expressed in transfected cells
T1 sequence (Q9JIM1 1-460): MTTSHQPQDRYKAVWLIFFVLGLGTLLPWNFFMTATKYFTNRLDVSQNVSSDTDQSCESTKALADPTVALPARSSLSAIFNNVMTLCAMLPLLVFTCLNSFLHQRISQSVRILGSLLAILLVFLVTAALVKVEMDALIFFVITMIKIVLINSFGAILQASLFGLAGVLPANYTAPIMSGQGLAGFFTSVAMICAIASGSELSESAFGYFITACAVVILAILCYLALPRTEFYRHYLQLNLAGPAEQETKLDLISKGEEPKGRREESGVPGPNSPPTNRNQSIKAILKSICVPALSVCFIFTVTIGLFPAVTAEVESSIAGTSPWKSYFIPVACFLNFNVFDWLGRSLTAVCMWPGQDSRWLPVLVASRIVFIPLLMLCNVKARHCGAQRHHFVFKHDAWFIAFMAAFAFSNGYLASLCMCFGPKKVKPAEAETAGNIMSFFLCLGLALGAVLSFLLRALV
In words: Adenosine transport activity (ENT1, [3H]-adenosine uptake inhibition). The test is classed as cell-based. To be noted: stable cells expressing mouse ENT-1; [2,8-3H]-adenosine 6 nM, 20 min. In outline: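 Stable mammalian cells expressing mouse ENT1 are seeded at 60,000 cells/well and washed into HEPES-Tris pH 7.4 uptake buffer. Compounds (1% DMSO) are added at RT, immediately followed by 6 nM [3H]-adenosine for 20 min. Cell-associated radioactivity is counted by scintillation after ice-cold washes, with nonspecific uptake defined by 10 μM NBTI.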

Molecules are shown by their SMILES.

Broadly, the inhibition in vivo is the percentage by which the read-out fell short of the control. A low value points to little suppression. One may read the IC50 as the point on the concentration scale where inhibition reaches its midpoint. Low values mean greater potency, high ones weaker potency. `Cc1ncc(-c2ccc3c(c2)N(c2cncc(N4CCOCC4)n2)C(=O)C3(C)C)cn1` [Example 1, 3,3-Dimethyl-6-(2-methylpyrimidin-5-yl)-1-(6-morpholinopyrazin-2-yl)indolin-2-one] had an inhibition in vivo at 30 mg/kg in test [1] of 90%. Also, the IC50 in test [2] is 39 nM.
On the same counts, the results for `Cc1ncc(-c2ccc3c(c2)N(c2cncc(N4CCCC4=O)n2)C(=O)C3(C)C)cn1` [Example 3, 3,3-Dimethyl-6-(2-methylpyrimidin-5-yl)-1-(6-(2-oxopyrrolidin-1-yl)pyrazin-2-yl)indolin-2-one] are 87.8% and 57 nM.
`Cc1ncc(-c2ccc3c(c2)N(c2cncc(N4CCOC4=O)n2)C(=O)C3(C)C)cn1` [Example 15, 3-(6-(3,3-Dimethyl-6-(2-methylpyrimidin-5-yl)-2-oxoindolin-1-yl)pyrazin-2-yl)oxazolidin-2-one] displayed an inhibition in vivo at 30 mg/kg in test [1] of 87.1%. Also, it took 26 nM to reach half-maximal inhibition in test [2] (IC50).
For the compound `Cc1ncc(-c2ccc3c(c2)N(c2cnc(C)c(N4CCOCC4)n2)C(=O)C3(C)C)cn1` [Example 18, 3,3-Dimethyl-1-(5-methyl-6-morpholinopyrazin-2-yl)-6-(2-methylpyrimidin-5-yl)indolin-2-one], at 30 mg/kg the inhibition in vivo in test [1] was 88.8%. For the same compound, the IC50 in test [2] was found to be 97 nM.
In turn, `Cc1ncc(-c2ccc3c(c2)N(c2cnc(C)c(N4CCOC4=O)n2)C(=O)C3(C)C)cn1` [Example 20, 3-(6-(3,3-Dimethyl-6-(2-methylpyrimidin-5-yl)-2-oxoindolin-1-yl)-3-methylpyrazin-2-yl)oxazolidin-2-one] gave an inhibition in vivo at 30 mg/kg in test [1] of 89.7%. In test [2], this compound gave an IC50 of 16.5 nM.
On the same counts, the results for `Cc1ncc(-c2ccc3c(c2)N(c2ccc4c(n2)N(C)C(=O)C4(C)C)C(=O)C3(C)C)cn1` [Example 39, 6-(3,3-Dimethyl-6-(2-methylpyrimidin-5-yl)-2-oxoindolin-1-yl)-1,3,3-trimethyl-1H-pyrrolo[2,3-b]pyridin-2(3H)-one] are 99.5% and 26.9 nM.
The matching figures for `Cc1ncc(-c2ccc3c(c2)N(c2cnc(-n4ccnc4C)cn2)C(=O)C3(C)C)cn1` [Example 50, 3,3-Dimethyl-1-(5-(2-methyl-1H-imidazol-1-yl)pyrazin-2-yl)-6-(2-methylpyrimidin-5-yl)indolin-2-one]: 96.3% and 31.1 nM.
`Cc1ncc(-c2ccc3c(c2)N(c2cnc4c(c2)C(C)(C)C(=O)N4C)C(=O)C3(C)C)cn1` [Example 54, 5-(3,3-Dimethyl-6-(2-methylpyrimidin-5-yl)-2-oxoindolin-1-yl)-1,3,3-trimethyl-1H-pyrrolo[2,3-b]pyridin-2(3H)-one] had an inhibition in vivo at 30 mg/kg in test [1] of 93.5%. In test [2], this compound displayed an IC50 of 23.9 nM.

Source of the values: patent publication US10519140B2, “Indolin-2-one derivatives” (Hoffmann-La Roche Inc., priority 2015, dated 2019).
